Measurements: patent US20230218681A1, “BREVUNDIMONAS SP FOR USE IN DISEASE PREVENTION AND TREATMENT” (Zivo Bioscience, Inc., priority 2021, published 2023)

Columns and labels:
[1] = system: Eimeria acervulina, Eimeria maxima, and Eimeria tenella; experiment: First study: floor-pen broilers challenged with Eimeria on Day 7, test material in feed, Days 0-28; type: in vivo, broiler chicks
Description: (§1) Chicks were obtained within twelve hours of hatching from fecal contaminated flocks at a commercial hatchery on Day 0 (hatch and placement day). Three-hundred mixed-sex broiler chicks (50:50 sex ratio) were randomly assigned on Day 0 by individual weights to each of several test group pens, each with replicates. Only antibiotic-free birds were sourced, and no coccidiosis vaccine was administered at the hatchery or at any time during the study. Chicks were evaluated upon receipt for signs of disease or other complications that could affect study outcome. Weak birds were humanely sacrificed. Birds were not replaced during the study.
(§2) Following examination, chicks were weighed and allocated to pens for the various treatment groups using a randomized block design. Weight distribution across the treatment groups was assessed prior to feeding by comparing the individual test groups' standard deviations of the mean against that of the control group. Weight distribution across the groups was considered acceptable for this study when differences between control and test groups were within one standard deviation.
(§3) All birds received nutritionally adequate diets as pellets (crumbled pellets for Days 1-14). Birds were fed their respective treatment diets ad libitum from day of hatch to 28 days of age. (The typical average market age is 42 days.) Birds were raised on built-up litter to further mimic stress conditions typically experienced in poultry production.
(§4) All diets were offered ad libitum without restrictions to full-fed consumption, except for an 8-hour fasting period prior to cocci-challenge on Day 7 when all birds assigned to challenge test groups received oocyst-inoculated feed containing a mixture of Eimeria acervulina, Eimeria maxima, and Eimeria tenella. Dietary requirements for protein, lysine, methionine, methionine+cystine, arginine, threonine, tryptophan, total phosphorus, available phosphorus, total calcium, dietary sodium, and dietary choline were met by adjusting the concentrations of corn and soybean meal ingredients, as well as other minor ingredients commonly used in poultry production.
(§5) Pens were monitored for environmental conditions, including temperature, lighting, water, feed, litter condition, and unanticipated house conditions/events. Pens were checked daily for mortality. Examinations were performed on all broilers found dead or moribund. Mortalities were recorded (date and weight) and examined (both internal and external body mass).
Cocci-Challenge—On Day 7, all birds assigned to challenged test groups received oocyst-inoculated feed containing a mixture of Eimeria acervulina, Eimeria maxima, and Eimeria tenella. Adequate feed was precisely weighed and provided to birds to consume at the rate of 100% fill-capacity on average. Prior to the challenge, all birds were starved for eight hours. Inoculated feed was provided to the birds. Following a specific time, all remaining inoculated feed was removed and weighed to assure equal consumption per pen and per bird. The quantity of feed (both placed and withdrawn) was recorded on each pen's feed record.
Differences between groups were evaluated at P<0.05, employing Treatment x Replicate RCB (Randomized Complete Block) design. Particularly and as noted, “Significance (P<0.05)” refers to means for groups not sharing common letter designations in the figures which indicates significant difference (P<0.05) between said groups, as determined by Duncan's New Multiple Range Test (MRT 1955).

[2] = system: Eimeria acervulina, Eimeria maxima, and Eimeria tenella; experiment: Second study: dried bacterial biomass feed ingredients in cocci-challenged floor-pen broilers on built-up litter, Days 1-28; type: in vivo, broiler chicks
From the text: A second study was undertaken to determine the response and efficacy of a dried bacterial biomass feed ingredient incorporated at a specific amount into a commercial-type corn-soybean diet and fed to floor-pen raised broilers. The second study was undertaken over a 28-day period, from Day 1 to Day 28.
The animals were raised under a disease challenge environment (cocci-challenge+built-up litter). For the study and as set forth in FIG. 15, six groups were established, including a first group that received no feed additive ingredient, a second group treated with the anti-coccidia drug Coban® (Elanco), a third group fed a Variovorax-based biomass, a fourth group fed a Brevundimonas-based biomass, a fifth group fed a Sphingomonas-based biomass, and a sixth group fed a 50:50 mixture of a Variovorax and Brevundimonas-based biomass. The feed included corn and soybean meal rations with normal nutritional formulations. No coccidiostat (except for treatment with Coban® provided to the second group) or ABF (antibiotic free products) were administered during the study. No coccidiosis vaccine was administered at the hatchery or during the course of the study.
as §1, with “A total of 1,800 mixed sex broiler chicks were obtained” for “Chicks were obtained”, “placement day). A number of mixed-sex broiler” for “placement day). Three-hundred mixed-sex broiler”, “weights to one of several” for “weights to each of several”
as §2, §3
as §4, with “assigned to the challenge test” for “assigned to challenge test”
as §5
Cocci-Challenge—On Day 7, all birds assigned to the challenge test groups received oocyst-inoculated feed containing a mixture of Eimeria acervulina, Eimeria maxima, and Eimeria tenella. Adequate feed was precisely weighed and provided to birds to consume at the rate of 100% fill-capacity on average. […]

[3] = cocci challenge Day 7, Days 1-28
[4] = mortality-corrected, cocci challenge Day 7, Days 1-28

With `CC[C@@]1([C@@H]2O[C@@H]([C@H]3O[C@@](O)(CO)[C@H](C)C[C@@H]3C)C[C@@H]2C)CC[C@H]([C@]2(C)CC[C@]3(C[C@H](O)[C@@H](C)[C@@H]([C@@H](C)[C@@H](OC)[C@H](C)C(=O)O)O3)O2)O1` [Coban, Monensin, USP] the “Lesion Score Ceca Day 28” value ([1]; Day 28) was 0.583, the “Lesion Score Ileum Day 28” value ([1]; Day 28) was 0.433 and the “Lesion Score Duodenum Day 28” value ([1]; Johnson and Reid method, Day 28) was 0.525. The “Avg Pen Body Weight (g) Day 28” value ([1]; cocci challenge Day 7, Day 28) was 1430.88 g, the “Feed Intake (g/bird/day) Day 28” value ([1]; cocci challenge Day 7, Day 28) was 89.499 g/bird/day and the “% Mortality Days 1-28” value [1, 3] was 1.852%. The “Feed Conversion Ratio Corrected Days 1-28” value [1, 4] was 1.527, the “Coccidia Incidence Score Small Intestine Day 28” value ([2]; Day 28) was 0.325 and the “Lesion Score Duodenum Day 28” value ([2]; Day 28) was 0.317. For the same compound, the “Avg Pen Body Weight (g) Day 28” value ([2]; cocci challenge Day 7, Day 28) was 1443.182 g, the “Feed Intake (g/bird/day) Day 28” value ([2]; cocci challenge Day 7, Day 28) was 75.493 g/bird/day and the “% Mortality Days 1-28” value [2, 3] was 3.750%. The “Feed Conversion Ratio Corrected Days 1-28” value [2, 4] was 1.403.
